Values of other authors, collected in patent US8790676B2, “Microencapsulated pesticide” (priority 2005, dated 2014).
Read-outs that look alike come from different tables or passages of the source.

Compound | water-solubility (at pH 4.0, 20° C.) [mg/mL] | water-solubility (pH 7) [mg/mL]
(E)-1-(2-chloro-1,3-thiazol-5-yl)-3-methyl-2-nitroguanidine [Clothianidin] | 0.304 | –
CCN(Cc1ccc(Cl)nc1)/C(=C/[N+](=O)[O-])NC [Nitempyram, (E)-N-(6-chloro-3-pyridylmethyl)-N-ethyl-N′-methyl-2-nitrovinylidenediamine] | – | > 590
